The target of assay [1] is Beta-lactamase NDM-1 (Escherichia coli) (UniProt E5KIY2). The experiment in a line: Inhibition of NDM1 in Escherichia coli clinical isolates assessed as potentiation of cefotaxime-induced antibacterial activity by measuring combination MIC at >256 ug/ml incubated at 37 degC for 18 hrs by spectrophotometry based checkerboard microdilution assay. A general note: Dilution methods test growth across graded concentrations, often in twofold steps.

Assay [2] relates to Bacteria. The experiment in a line: Inhibition of bacterial NDM1 expressed in Escherichia coli BL21 (DE3) expressing pET-24a-blaNDM-1 assessed as potentiation of cefotaxime-induced antibacterial activity by measuring fractional inhibitory concentration index at 4 ug/ml incubated at 37 degC for 18 hrs by spectrophotometry based checkerboard microdilution assay.
Assay [3] concerns Bacteria. The assay is described as follows: Inhibition of bacterial NDM1 expressed in Escherichia coli BL21 (DE3) expressing pET-24a-blaNDM-1 assessed as potentiation of meropenem-induced antibacterial activity by measuring combination MIC at 0.25 ug/ml incubated at 37 degC for 18 hrs by spectrophotometry based checkerboard microdilution assay.
Assay [4] concerns Bacteria. The experiment in a line: Inhibition of bacterial NDM1 expressed in Escherichia coli BL21 (DE3) expressing pET-24a-blaNDM-1 assessed as potentiation of cefotaxime-induced antibacterial activity by measuring reduction in cefotaxime MIC incubated at 37 degC for 18 hrs by spectrophotometry based checkerboard microdilution assay.
Assay [5] concerns Bacteria. The assay is described as follows: Inhibition of bacterial NDM1 expressed in Escherichia coli BL21 (DE3) expressing pET-24a-blaNDM-1 assessed as potentiation of cefazolin-induced antibacterial activity by measuring fractional inhibitory concentration index at 256 ug/ml incubated at 37 degC for 18 hrs by spectrophotometry based checkerboard microdilution assay.
Assay [6] relates to Bacteria. The experiment in a line: Inhibition of bacterial NDM1 expressed in Escherichia coli BL21 (DE3) expressing pET-24a-blaNDM-1 assessed as potentiation of cefotaxime-induced antibacterial activity by measuring fractional inhibitory concentration index at 0.25 ug/ml incubated at 37 degC for 18 hrs by spectrophotometry based checkerboard microdilution assay.

Molecules are shown by their SMILES.

For the molecule `C=CCn1c(S)nnc1-c1ccccc1O`, the MIC in assay [1] is 1020 µg/mL; in the assay on Bacteria [3], 0.5 µg/mL. Further, the fractional inhibitory concentration index (FICI) in the assay with Bacteria [2] is < 0.258; with Bacteria [5], < 0.625; in the assay with Bacteria [6], < 0.505. In addition, in the assay with Bacteria [4], the fold change (FC) amounted to 4.

Source of the values: ChEMBL document CHEMBL4130619, “Structure-Based Virtual Screening for the Discovery of Novel Inhibitors of New Delhi Metallo-β-lactamase-1” (ACS Med Chem Lett, 2018).
